Like-named read-outs stand apart in the source and are kept apart here.
What was measured:
SNU-387 = assay: In vitro human tumor cell line cytotoxicity assay; format: cell-based; conditions: for IC50: Homo sapiens
ATN-1 = assay: In vitro human tumor cell line cytotoxicity assay; format: cell-based; conditions: read-out: RelIC50
Method: (§1) TH 2870, TH 3423 and TH 3424 was also tested in different cancer cell lines using the materials and procedures as follows. 10* cell lysate buffer (cell signaling technology, Cat. No.9803); Protease Inhibitor Cocktail for Mammalian Tissues (Sigma, Cat. No.P8340); Phosphatase Inhibitor Cocktails for Serine/Threonine Phosphatases and L-Isozymes of Alkaline Phosphatases (Sigma, Cat. No.P0044); Phosphatase Inhibitor Cocktails for Tyrosine Protein Phosphatases, Acid and Alkaline Phosphatases (Sigma, Cat. No.P5726); BCA kit (Thermo, Cat. No.23225); Primary antibody, mouse monoclonal AKR1C3 antibody (clone NP6.G6.A6; Sigma-Aldrich); Primary antibody, α-tubulin (clone B-5-1-2; Sigma-Aldrich); Secondary antibody, Goat-anti-Mouse IgG HRP conjugated (A4416; Sigma-Aldrich) were used. Cells were passaged two generations in good condition and digested. The appropriate number of cells were inoculated in 6-cm cell culture dishes, and incubated at 37°C, 5% CO2 overnight. When the cells were grown to 80% density, the dish was removed from incubator. The medium was aspirated, washed twice with ice-cold PBS, and residual PBS was removed. An appropriate volume of ice-cold 1* cell lysate was added and incubated on ice for 10 minutes. Cell lysate was transferred to microfuge tubes chilled in ice, 4 °C, 12,000 rpm and centrifuged for 15 minutes. Supernatant was transferred into another microcentrifuge tube. Cell lysates were diluted by a 10* cell lysates, and add Protease Inhibitor Cocktail for Mammalian Tissues (Sigma, # P8340), Phosphatase Inhibitor Cocktails for Serine / Threonine Phosphatases and L-Isozymes of Alkaline Phosphatases, Phosphatase Inhibitor Cocktails for Tyrosine Protein Phosphatases, Acid and Alkaline Phosphatases. The BCA protein quantification kit for protein quantification was used with 1* cell lysate to dilute the cell lysate to the same concentration. Corresponding samples were added on 5* SDS-loading buffer, heated to 85 °C for 10 minutes, and centrifuged briefly. The samples were saved at -20 °C or used directly for protein electrophoresis. Those samples were electrophoresed according to standard practice, transferred to a membrane, the primary antibodies and then secondary antibody were applied according to the manufacturer's instructions. Odyssey infrared laser imaging system was used to scan signals.
(§2) The results are shown below in Figs. 3 and 4 and listed in the following tables: Table: TH 2870, TH 3423 and TH 3424 sensitivity in liver, prostate, esophageal cancer and leukemia cell lines

CCRF-CEM = assay: In vitro human tumor cell line cytotoxicity assay; format: cell-based; conditions: read-out: RelIC50
Method: as §1, §2

HL-60 = assay: In vitro human tumor cell line cytotoxicity assay; format: cell-based; conditions: read-out: RelIC50
Method: as §1, §2

KYSE 510 = assay: In vitro human tumor cell line cytotoxicity assay; format: cell-based; conditions: read-out: RelIC50
Method: as §1, §2

Mono-Mac-6_ = assay: In vitro human tumor cell line cytotoxicity assay; format: cell-based; conditions: read-out: RelIC50
Method: as §1, §2

OE 33 = assay: In vitro human tumor cell line cytotoxicity assay; format: cell-based; conditions: OE33, read-out: RelIC50
Method: as §1, §2

P116 = assay: In vitro human tumor cell line cytotoxicity assay; format: cell-based; conditions: read-out: RelIC50
Method: as §1, §2

PF-382 = assay: In vitro human tumor cell line cytotoxicity assay; format: cell-based; conditions: read-out: RelIC50
Method: as §1, §2

Reh 3 = assay: In vitro human tumor cell line cytotoxicity assay; format: cell-based; conditions: read-out: RelIC50
Method: as §1, §2

SUP-T1 = assay: In vitro human tumor cell line cytotoxicity assay; format: cell-based; conditions: read-out: RelIC50
Method: as §1, §2

TE-11 = assay: In vitro human tumor cell line cytotoxicity assay; format: cell-based; conditions: read-out: RelIC50
Method: as §1, §2

TE-15 = assay: In vitro human tumor cell line cytotoxicity assay; format: cell-based; conditions: read-out: RelIC50
Method: as §1, §2

TE-5 = assay: In vitro human tumor cell line cytotoxicity assay; format: cell-based; conditions: read-out: RelIC50
Method: as §1, §2

THP-1_ = assay: In vitro human tumor cell line cytotoxicity assay; format: cell-based; conditions: read-out: RelIC50
Method: as §1, §2

T.T = assay: In vitro human tumor cell line cytotoxicity assay; format: cell-based; conditions: TT, read-out: RelIC50
TE-9 = assay: In vitro human tumor cell line cytotoxicity assay; format: cell-based; conditions: read-out: RelIC50
TE-4 = assay: In vitro human tumor cell line cytotoxicity assay; format: cell-based; conditions: read-out: RelIC50
[1] = Pharmacokinetics (TK) after 30-min IV infusion in monkeys; format: in vivo, Cynomolgus monkeys; conditions: 2 mg/kg 30-min IV infusion; for MRT inf / clearance / half-life / Vd / concentration at 0.25 hr / concentration at 0.5 hr / concentration at 0.75 hr / concentration at 1 hr / concentration at 2 hr: cynomolgus monkey, plasma; for half-life: read-out: Terminal t1/2 (converted); for Vd: read-out: Vss
Method: (§3) TH 3423 and TH 3424 were tested in no naive monkeys (1 male and one female for each compound at 2 mg/kg) with 30-min intravenous infusion, TK sampling: on Day 1 and Day 15: 0.25, 0.5, 0.75, 1 and 2 hr post infusion initiation. Serum chemistry and hematology: pre-dose (Day 1), day 5, day 8 (pre-dose), day 15 (pre-dose), day 22 and day 28. Clinical observation: Daily during the study, total 35 days. Food consumption: Daily during the study, total 35 days. Bodyweight measurement: Twice weekly for five weeks.

[2] = Acute toxicity study in monkeys, body weight; format: in vivo, Cynomolgus monkeys; parameters: unit not given here; conditions: 2 mg/kg IV infusion
Method: as §3

[3] = both sexes, mean, read-out: Plasma concentration, Mean
[4] = female, read-out: Plasma concentration
[5] = male, read-out: Plasma concentration

With `C[C@H](OP(=O)(N1CC1)N1CC1)c1ccc([N+](=O)[O-])c(Oc2cccc(C(=O)N(C)C)c2)c1` (single isomer, unassigned) [TH3424] the “Max Inhibition%” value (SNU-387) was 99.3%, the “Min Inhibition%” value (SNU-387) was -14.8% and the IC50 (SNU-387; read-out: AbsIC50) was 70.1 nM. It also gave an IC50 (SNU-387; read-out: RelIC50) of 58.7 nM, an IC50 (ATN-1) of 29.8 nM and an IC50 (CCRF-CEM) of 3.7 nM. The IC50 (HL-60) was 3 nM, the IC50 (KYSE 510) was 180 nM and the IC50 (Mono-Mac-6_) was > 1000 nM. The IC50 (OE 33) was 84 nM, the IC50 (P116) was 84 nM and the IC50 (PF-382) was 15 nM. The IC50 (Reh 3) was 3 nM, the IC50 (SUP-T1) was 3 nM and the IC50 (TE-11) was 2.7 nM. The IC50 (TE-15) was 2.9 nM, the IC50 (TE-5) was 33 nM and the IC50 (THP-1_) was > 1000 nM. For the same compound, the IC50 (T.T) was 6 nM, the IC50 (TE-9) was 11 nM and the IC50 (TE-4) was 9.9 nM. The AUCINF ([1]; Mean) was 1461 hr^∗ng/mL, the AUClast ([1]; Mean) was 1459 hr^∗ng/mL and the MRT inf ([1]; both sexes, Mean) was 13.9 min. It also gave a clearance ([1]; both sexes, Mean) of 23.7 mL/min/kg, a half-life ([1]; both sexes, Mean) of 10.9 min and a Vd ([1]; both sexes, Mean) of 0.325 L/kg. The concentration at 0.25 hr [1, 3] was 2160 ng/mL, the concentration at 0.5 hr [1, 3] was 2400 ng/mL and the concentration at 0.75 hr [1, 3] was 794 ng/mL. For the same compound, the concentration at 1 hr [1, 3] was 185 ng/mL, the concentration at 2 hr [1, 3] was 5.64 ng/mL and the concentration at 0.25 hr [1, 4] was 1850 ng/mL. It also gave a concentration at 0.5 hr [1, 4] of 2090 ng/mL, a concentration at 0.75 hr [1, 4] of 557 ng/mL and a concentration at 1 hr [1, 4] of 110 ng/mL. It also gave a concentration at 2 hr [1, 4] of 3.84 ng/mL, an MRT inf ([1]; female) of 12.9 min and a clearance ([1]; female) of 27.8 mL/min/kg. For the same compound, the half-life ([1]; female) was 10.9 min, the Vd ([1]; female) was 0.36 L/kg and the concentration at 0.25 hr [1, 5] was 2480 ng/mL. For the same compound, the concentration at 0.5 hr [1, 5] was 2720 ng/mL, the concentration at 0.75 hr [1, 5] was 1030 ng/mL and the concentration at 1 hr [1, 5] was 260 ng/mL. For the same compound, the concentration at 2 hr [1, 5] was 7.43 ng/mL, the MRT inf ([1]; male) was 15 min and the clearance ([1]; male) was 19.3 mL/min/kg. The half-life ([1]; male) was 10.9 min, the Vd ([1]; male) was 0.289 L/kg and the AUCINF ([1]; female) was 1196 hr^∗ng/mL. It also gave an AUClast ([1]; female) of 1195 hr^∗ng/mL, an AUCINF ([1]; male) of 1726 hr^∗ng/mL and an AUClast ([1]; male) of 1724 hr^∗ng/mL. The body weight ([2]; Mean, Day 1) was 3.34, the body weight ([2]; Mean, Day 4) was 3.26 and the body weight ([2]; Mean, Day 8) was 3.20. It also gave a body weight ([2]; Mean, Day 11) of 3.06, a body weight ([2]; female, Day 1) of 3.28 and a body weight ([2]; female, Day 4) of 3.22. It also gave a body weight ([2]; female, Day 8) of 3.08, a body weight ([2]; female, Day 11) of 2.94 and a body weight ([2]; male, Day 1) of 3.40. For the same compound, the body weight ([2]; male, Day 4) was 3.30, the body weight ([2]; male, Day 8) was 3.31 and the body weight ([2]; male, Day 11) was 3.17.

— patent EP3390415B1, “(R)- AND (S)-1-(3-(3-N,N-DIMETHYLAMINOCARBONYL)PHENOXYL-4-NITROPHENYL)-1-ETHYL-N,N'-BIS (ETHYLENE)PHOSPHORAMIDATE, COMPOSITIONS AND METHODS FOR THEIR USE AND PREPARATION” (OBI PHARMA, INC., priority 2015, dated 2017)
